Measurements as given in BindingDB's records for doi:10.7270/Q2X928QK (University of Pittsburgh, 2007).

target: T1, M-phase inducer phosphatase 2 (Homo sapiens, UniProt P30305); experiment: Cdc25B catalytic domain inhibition plus catalase – biochemical, catalase present, probe assessment, dose response (AID 668)
T1 sequence (P30305 whole entry): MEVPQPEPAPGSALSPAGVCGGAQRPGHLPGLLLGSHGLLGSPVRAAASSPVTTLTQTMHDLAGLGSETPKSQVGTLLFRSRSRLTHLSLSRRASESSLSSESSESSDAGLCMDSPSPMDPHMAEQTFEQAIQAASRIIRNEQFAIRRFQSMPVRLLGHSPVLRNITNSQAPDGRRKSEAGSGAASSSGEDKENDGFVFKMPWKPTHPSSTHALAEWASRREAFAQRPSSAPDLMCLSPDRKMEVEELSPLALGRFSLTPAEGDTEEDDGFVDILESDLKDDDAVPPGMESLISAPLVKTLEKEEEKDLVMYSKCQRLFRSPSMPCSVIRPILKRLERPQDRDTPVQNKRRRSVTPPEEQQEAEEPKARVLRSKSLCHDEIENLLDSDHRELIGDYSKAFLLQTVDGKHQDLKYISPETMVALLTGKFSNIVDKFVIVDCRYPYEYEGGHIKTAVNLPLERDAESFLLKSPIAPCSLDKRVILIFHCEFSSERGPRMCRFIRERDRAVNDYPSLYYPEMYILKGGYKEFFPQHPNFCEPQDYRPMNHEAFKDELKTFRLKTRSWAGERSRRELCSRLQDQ

**Q.** For `O=C(Nc1ccc2nc(-c3ccco3)c(-c3ccco3)nc2c1)N1CCCCCC1`, which IC50 is on record?
**A.** 22.4 µM

**Q.** How did the IC50 turn out when `Cc1ccc2c(c1C)NC(C(=O)O)C1CC=CC21` (stereo not given) was run?
**A.** 7.12 µM

**Q.** `O=C(O)C1Nc2c(O)cccc2C2C=CCC12` (stereo not given) was tested. Which IC50 did it give?
**A.** 11 µM

**Q.** For `Cn1ncnc2c(=O)n(C)c(=O)nc1-2`, which IC50 is on record?
**A.** 23 µM

**Q.** `[O-]/[N+](=C\c1ccncc1)c1ccccc1` was tested. Which IC50 did it give?
**A.** > 50 µM

**Q.** For `O=C1C=Cc2ccccc2C1=O` [1,2-dihydronaphthalene-1,2-dione], which IC50 is on record?
**A.** 25.4 µM

**Q.** For `CCn1nc(-c2ccccc2)nc2c(=O)n(C)c(=O)nc1-2` [1-Ethyl-6-methyl-3-phenyl-1H-pyrimido[5,4-e][1,2,4]triazine-5,7-dione], which IC50 is on record?
**A.** 20 µM

**Q.** For `[O-]/[N+](=C\c1ccc(OC(F)F)cc1)c1ccccc1` [1-[4-(difluoromethoxy)phenyl]-N-phenylmethanimine oxide], which IC50 is on record?
**A.** > 50 µM

**Q.** For `CCn1nc(-c2cccs2)nc2c(=O)n(C)c(=O)nc1-2` [1-ethyl-6-methyl-3-thiophen-2-yl-pyrimido[5,4-e][1,2,4]triazine-5,7-dione], which IC50 is on record?
**A.** > 50 µM

**Q.** With `O=C1Cc2ccccc2C(=O)N1CCc1ccccc1` [2-(2-phenylethyl)-4H-isoquinoline-1,3-dione] as the compound, how does the IC50 read?
**A.** 48.9 µM

**Q.** Which IC50 does the source give for `N#Cc1c(N)sc(=S)c2c1CCN(Cc1ccccc1)C2` [3-Amino-7-benzyl-1-thioxo-5,6,7,8-tetrahydro-1H-thiopyrano[3,4-c]pyridine-4-carbonitrile] here?
**A.** 14.1 µM

**Q.** With `Cc1ccccc1Nc1cc2ccccc2c(O)n1` [3-[(2-methylphenyl)amino]-2H-isoquinolin-1-one] as the compound, how does the IC50 read?
**A.** 45 µM

**Q.** How did the IC50 turn out when `COc1ccc(Br)cc1C=c1sc2nc(-c3ccco3)nn2c1=O` [5-[(5-bromanyl-2-methoxy-phenyl)methylidene]-2-(furan-2-yl)-[1,3]thiazolo[3,2-b][1,2,4]triazol-6-one] was run?
**A.** 4.2 µM

**Q.** Which IC50 does the source give for `CC(=O)Nc1cc(OC(C)=O)c2nonc2c1OC(C)=O` [Acetic acid 7-acetoxy-5-acetylamino-benzo[1,2,5]oxadiazol-4-yl ester] here?
**A.** > 50 µM

**Q.** How did the IC50 turn out when `CCOC(=O)C(C(=O)OCC)c1cc(Br)c2noc3c2c1C(=O)c1ccccc1-3` [MLS000038842] was run?
**A.** > 50 µM

**Q.** How did the IC50 turn out when `Oc1nc(Nc2ccccc2)cc2ccccc12` [MLS000043701] was run?
**A.** 45.8 µM

**Q.** How did the IC50 turn out when `Cc1c(N=c2c(=O)c3ccccc3c2=O)c(=O)n(-c2ccccc2)n1C` [MLS000105950] was run?
**A.** > 50 µM

**Q.** How did the IC50 turn out when `CCOc1ccc2noc3c2c1C(=O)c1ccccc1-3` [MLS000106837] was run?
**A.** > 50 µM

**Q.** Which IC50 does the source give for `COc1ccc2noc3c2c1C(=O)c1ccccc1-3` [MLS000106874] here?
**A.** > 50 µM

**Q.** Which IC50 does the source give for `Cc1ccc2c(c1)C1C=CCC1C(C(=O)O)N2` (stereo not given) [MLS-0067149.0001] here?
**A.** 7.35 µM

**Q.** For `O=C(NC1(O)C(=O)c2ccccc2C1=O)c1ccccc1` [N-(2-hydroxy-1,3-dioxo-2-indenyl)benzamide], which IC50 is on record?
**A.** > 50 µM

**Q.** Which IC50 does the source give for `COc1cccc2c1NC(C(=O)O)C1CC=CC21` (stereo not given) [SMR000009698] here?
**A.** 6.18 µM

**Q.** How did the IC50 turn out when `O=C(OC1CCCCC1)c1ccc2c(c1)C1C=CCC1C(C(=O)O)N2` (stereo not given) [SMR000019385] was run?
**A.** 3.8 µM

**Q.** `N#Cc1c(N2CCCC2)nc(N)c2c(N)nc(N3CCCC3)cc12` [SMR000061605] was tested. Which IC50 did it give?
**A.** > 50 µM

**Q.** For `Nc1cccc2cnccc12` [isoquinolin-5-amine], which IC50 is on record?
**A.** > 50 µM
